Earlier results on two compounds are cited in US20060148833A1, “Use of chymase inhibitors for the prevention and/or treatment of arterio-venous graft failure” (priority 2002, published 2006).

Each structure is given as a SMILES string.

Series [1] has as its system vein graft. Particulars: dog model of vein graft injury.
The test system of series [2] is dog carotid artery. Particulars: dog carotid artery balloon injury model.
Series [3] concerns restenosis following PTCA. As to conditions: oral administration over three months, clinical trials.
For series [4], the system named is balloon-injured dog coronary arteries. As to conditions: by suppression of vascular chymase levels.

With `O=CNc1cnc(-c2ccccc2)n(CC(=O)NC(Cc2ccccc2)C(=O)C(=O)CCCOc2ccccn2)c1=O` (stereo not shown) [NK3201, 2-(5-formylamino-6-oxo-3-phenyl-1,6,-dihydropyrmidine-1-yl)-N-{2,3-dioxo-6-(2-pyridyloxy)-1-phenylmethyl}hexyl acetamide], the “vascular proliferation and subsequent neointima formation” value in series [1] is “inhibit vascular proliferation and subsequent neointima formation”. Moreover, the intimal hyperplasia entry in series [2] is listed as “inhibit intimal hyperplasia”.
As for `COc1ccc(C=CC(=O)Nc2ccccc2C(=O)O)cc1OC` [Tranilast, N-(3,4-dimethoxycinnamoyl) anthranilic acid], the “rate of restenosis following PTCA” value in series [3] is listed as “markedly reduce the rate of restenosis”. The neointima formation entry in series [4] is recorded as “suppresses neointima formation”.
